The values that follow come from patent publication US11958816B1, “N′-({[(5-phenyl-1,3,4-oxadiazol-2-yl)sulfanyl]acetyl}oxy)benzenecarboximidamide as an antimicrobial compound” (KING FAISAL UNIVERSITY, priority 2023, dated 2024).

Holding throughout (type): cell-based
One assay deals with Bacillus cereus. Nature of the assay: Agar plate disc-diffusion, antibacterial activity (inhibition zone). The settings on record: nutrient agar, 37° C., 48 h, DMSO zone subtracted. As for the experimental part:
(§1) The agar plate disc-diffusion method was applied. […] The discs were then placed onto the surface of agar plates (nutrient agar for bacteria and Sabouraud's dextrose agar for fungi) seeded with the test organism. Each plate contained 15 mL of the agar medium, previously seeded with 0.2 mL of the broth culture of each organism pregrown for 18 hours. The plates were incubated at 37° C. for 48 h, and 72 h for fungi. The inhibition zones were measured in mm. Discs impregnated with DMSO were used as a control, and its inhibition zone was subtracted from the tested compound actual inhibition zone.
(In general: Agar diffusion results depend on both activity and mobility in agar.)

Another assay deals with Escherichia coli. The description is as above. The settings on record: nutrient agar, 37° C., 48 h, DMSO zone subtracted. As for the experimental part: as §1
In another assay the test system is Pseudomonas aeruginosa. The assay is described as above. The settings on record: nutrient agar, 37° C., 48 h, DMSO zone subtracted. As for the experimental part:
as §1

The test system of another assay is Staphylococcus aureus. The assay is described as above. The settings on record: nutrient agar, 37° C., 48 h, DMSO zone subtracted. As for the experimental part:
as §1

The next assay deals with Aspergillus flavus. Nature of the assay: Agar plate disc-diffusion, antifungal activity (inhibition zone). The settings on record: Sabouraud's dextrose agar, 37° C., 72 h, DMSO zone subtracted. The procedure: as §1
Assay [1] deals with Chrysosporium keratinophilum. The description is as above. The settings on record: Sabouraud's dextrose agar, 37° C., 72 h, DMSO zone subtracted. As for the experimental part:
as §1

[2] abbreviates: A = concentration of comp. = 10,000 μL.
Setting [3] is: B = concentration of comp. = 30,000 μL.
[4] abbreviates: C = concentration of comp. = 50,000 μL.

Take `N/C(=N\OC(=O)CSc1nnc(-c2ccccc2)o1)c1ccccc1` [Compound 3, N′-({[(5-phenyl-1,3,4-oxadiazol-2-yl)sulfanyl]acetyl}oxy)benzenecarboximidamide]: in the assay on Bacillus cereus (setting [2]), the “inhibition zone, Bacillus Cereus, A” value is reported as 23 mm. Further, in the assay with Bacillus cereus (setting [3]), the “inhibition zone, Bacillus Cereus, B” value is 28 mm. In addition, the “inhibition zone, Bacillus Cereus, C” value in the assay on Bacillus cereus (setting [4]) came out at 40 mm. Also, the “inhibition zone, Escherichia coli, A” value in the assay on Escherichia coli (setting [2]) was 25 mm. For the same molecule, the “inhibition zone, Escherichia coli, B” value with Escherichia coli (setting [3]) worked out at 37 mm. Moreover, the “inhibition zone, Escherichia coli, C” value in the assay with Escherichia coli (setting [4]) was found to be 45 mm. Further, the “inhibition zone, Pseudomonas aeruginosa, A” value in the assay with Pseudomonas aeruginosa (setting [2]) amounted to 17 mm. Moreover, the “inhibition zone, Pseudomonas aeruginosa, B” value in the assay with Pseudomonas aeruginosa (setting [3]) came to 24 mm. Moreover, the “inhibition zone, Pseudomonas aeruginosa, C” value with Pseudomonas aeruginosa (setting [4]) was 36 mm. Besides, in the assay with Staphylococcus aureus (setting [2]), the “inhibition zone, Staphylococcus aureus, A” value was determined as 24 mm. Moreover, the “inhibition zone, Staphylococcus aureus, B” value with Staphylococcus aureus (setting [3]) stood at 28 mm. The “inhibition zone, Staphylococcus aureus, C” value with Staphylococcus aureus (setting [4]) was 37 mm. The “inhibition zone, Aspergillus flavus, A” value in the assay on Aspergillus flavus (setting [2]) worked out at 24 mm. The “inhibition zone, Aspergillus flavus, B” value in the assay with Aspergillus flavus (setting [3]) is on record as 29 mm. Moreover, the “inhibition zone, Aspergillus flavus, C” value in the assay with Aspergillus flavus (setting [4]) is 41 mm. The “inhibition zone, Chrysosporium keratinophilum, A” value in assay [1] (setting [2]) is listed as 23 mm. The “inhibition zone, Chrysosporium keratinophilum, B” value in assay [1] (setting [3]) is given as 26 mm. For the same molecule, the “inhibition zone, Chrysosporium keratinophilum, C” value in assay [1] (setting [4]) is 40 mm.
